Laboratory results: PubChem BioAssay (NCI)
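Values below derive from 48-hour exposures of cells grown in 96-well plates, with endpoints linearly interpolated between the two concentrations bracketing the appropriate inhibition level. The concentration for 50% growth inhibition is given as GI50. TGI: total growth inhibition.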

Assays:
Experiment in all cases: NCI-60 cell line screen, 48 h
SK-OV-3 ovarian = system: SK-OV-3 ovarian
A498 renal = system: A498 renal
UO-31 renal = system: UO-31 renal
PC-3 prostate = system: PC-3 prostate
ACHN renal = system: ACHN renal
SK-MEL-28 melanoma = system: SK-MEL-28 melanoma
SF-295 CNS = system: SF-295 CNS
NCI-H23 lung = system: NCI-H23 lung
UACC-62 melanoma = system: UACC-62 melanoma
COLO 205 colon = system: COLO 205 colon
MDA-MB-231 breast = system: MDA-MB-231 breast
NCI-H226 lung = system: NCI-H226 lung
TK-10 renal = system: TK-10 renal
SW-620 colon = system: SW-620 colon
UACC-257 melanoma = system: UACC-257 melanoma
DU-145 prostate = system: DU-145 prostate
MDA-MB-435 = system: MDA-MB-435
KM12 colon = system: KM12 colon
A549 NSCLC = system: A549 NSCLC
HCT-15 colon = system: HCT-15 colon
SNB-75 CNS = system: SNB-75 CNS
SK-MEL-5 melanoma = system: SK-MEL-5 melanoma
CAKI-1 renal = system: CAKI-1 renal
RPMI-8226 leukemia = system: RPMI-8226 leukemia
SK-MEL-2 melanoma = system: SK-MEL-2 melanoma
SF-539 CNS = system: SF-539 CNS
HOP-92 NSCLC = system: HOP-92 NSCLC
HOP-62 NSCLC = system: HOP-62 NSCLC
OVCAR-5 ovarian = system: OVCAR-5 ovarian
NCI-H460 lung = system: NCI-H460 lung
K-562 leukemia = system: K-562 leukemia
MALME-3M melanoma = system: MALME-3M melanoma
HT29 colon = system: HT29 colon
OVCAR-3 ovarian = system: OVCAR-3 ovarian
U251 CNS = system: U251 CNS
EKVX NSCLC = system: EKVX NSCLC
HS 578T breast = system: HS 578T breast
NCI-H522 lung = system: NCI-H522 lung
RXF 393 renal = system: RXF 393 renal
SF-268 CNS = system: SF-268 CNS

**Q.** For `NC(N)=N/N=C/c1c(-c2ccc(Cl)c(Cl)c2Cl)nc2sccn12`, which TGI (SK-OV-3 ovarian) is on record?
**A.** 3330 nM

**Q.** What about the TGI (A498 renal) of the same compound?
**A.** 2300 nM

**Q.** And the TGI (UO-31 renal)?
**A.** 2820 nM

**Q.** What about the TGI (PC-3 prostate) of the same compound?
**A.** > 100000 nM

**Q.** And the TGI (ACHN renal)?
**A.** > 100000 nM

**Q.** What about the TGI (SK-MEL-28 melanoma) of the same compound?
**A.** 3120 nM

**Q.** And the TGI (SF-295 CNS)?
**A.** 3290 nM

**Q.** What about the TGI (NCI-H23 lung) of the same compound?
**A.** 2650 nM

**Q.** And the TGI (UACC-62 melanoma)?
**A.** 2810 nM

**Q.** And the TGI (COLO 205 colon)?
**A.** 2730 nM

**Q.** What about the TGI (MDA-MB-231 breast) of the same compound?
**A.** 2470 nM

**Q.** And the TGI (NCI-H226 lung)?
**A.** 3560 nM

**Q.** What about the TGI (TK-10 renal) of the same compound?
**A.** 2700 nM

**Q.** What about the TGI (SW-620 colon) of the same compound?
**A.** 3070 nM

**Q.** What about the TGI (UACC-257 melanoma) of the same compound?
**A.** 3020 nM

**Q.** And the TGI (DU-145 prostate)?
**A.** 3120 nM

**Q.** Which GI50 (SK-OV-3 ovarian) does the source give for `CC(=O)O[C@H]1CC[C@]2(C)[C@H]3C(=O)C=C4[C@@H]5C[C@](C)(C(=O)N6CCCNCC6)CC[C@]5(C)CC[C@@]4(C)[C@]3(C)CC[C@H]2C1(C)C` here?
**A.** 1870 nM

**Q.** What about the TGI (SK-OV-3 ovarian) of the same compound?
**A.** 3480 nM

**Q.** And the GI50 (MDA-MB-435)?
**A.** 1590 nM

**Q.** What about the TGI (MDA-MB-435) of the same compound?
**A.** 2970 nM

**Q.** And the GI50 (KM12 colon)?
**A.** 1710 nM

**Q.** And the TGI (KM12 colon)?
**A.** 3210 nM

**Q.** What about the GI50 (A498 renal) of the same compound?
**A.** 1710 nM

**Q.** And the TGI (A498 renal)?
**A.** 3100 nM

**Q.** And the GI50 (A549 NSCLC)?
**A.** 1820 nM

**Q.** What about the TGI (A549 NSCLC) of the same compound?
**A.** 4670 nM

**Q.** What about the GI50 (HCT-15 colon) of the same compound?
**A.** 1480 nM

**Q.** What about the TGI (HCT-15 colon) of the same compound?
**A.** 2970 nM

**Q.** What about the GI50 (UO-31 renal) of the same compound?
**A.** 1400 nM

**Q.** What about the TGI (UO-31 renal) of the same compound?
**A.** 2820 nM

**Q.** And the GI50 (ACHN renal)?
**A.** 1660 nM

**Q.** And the TGI (ACHN renal)?
**A.** 3020 nM

**Q.** And the GI50 (SNB-75 CNS)?
**A.** 1340 nM

**Q.** What about the TGI (SNB-75 CNS) of the same compound?
**A.** 2640 nM

**Q.** And the GI50 (SK-MEL-28 melanoma)?
**A.** 1850 nM

**Q.** What about the TGI (SK-MEL-28 melanoma) of the same compound?
**A.** 3290 nM

**Q.** And the GI50 (SF-295 CNS)?
**A.** 1760 nM

**Q.** And the TGI (SF-295 CNS)?
**A.** 3200 nM

**Q.** And the GI50 (SK-MEL-5 melanoma)?
**A.** 2100 nM

**Q.** What about the TGI (SK-MEL-5 melanoma) of the same compound?
**A.** 4420 nM

**Q.** And the GI50 (CAKI-1 renal)?
**A.** 1430 nM

**Q.** And the TGI (CAKI-1 renal)?
**A.** 2790 nM

**Q.** And the GI50 (NCI-H23 lung)?
**A.** 1730 nM

**Q.** What about the TGI (NCI-H23 lung) of the same compound?
**A.** 3370 nM

**Q.** What about the GI50 (UACC-62 melanoma) of the same compound?
**A.** 1690 nM

**Q.** What about the TGI (UACC-62 melanoma) of the same compound?
**A.** 3130 nM

**Q.** And the GI50 (RPMI-8226 leukemia)?
**A.** 1460 nM

**Q.** What about the TGI (RPMI-8226 leukemia) of the same compound?
**A.** 4010 nM

**Q.** What about the GI50 (SK-MEL-2 melanoma) of the same compound?
**A.** 1930 nM

**Q.** And the TGI (SK-MEL-2 melanoma)?
**A.** 3700 nM

**Q.** And the GI50 (SF-539 CNS)?
**A.** 1620 nM

**Q.** What about the TGI (SF-539 CNS) of the same compound?
**A.** 3000 nM

**Q.** And the GI50 (HOP-92 NSCLC)?
**A.** 1080 nM

**Q.** And the TGI (HOP-92 NSCLC)?
**A.** 2410 nM

**Q.** What about the GI50 (HOP-62 NSCLC) of the same compound?
**A.** 1780 nM

**Q.** What about the TGI (HOP-62 NSCLC) of the same compound?
**A.** 4140 nM

**Q.** And the GI50 (OVCAR-5 ovarian)?
**A.** 1600 nM

**Q.** What about the TGI (OVCAR-5 ovarian) of the same compound?
**A.** 2960 nM

**Q.** And the GI50 (TK-10 renal)?
**A.** 1770 nM

**Q.** What about the TGI (TK-10 renal) of the same compound?
**A.** 3450 nM

**Q.** And the GI50 (NCI-H460 lung)?
**A.** 1580 nM

**Q.** And the TGI (NCI-H460 lung)?
**A.** 3110 nM

**Q.** And the GI50 (K-562 leukemia)?
**A.** 1270 nM

**Q.** And the TGI (K-562 leukemia)?
**A.** 4270 nM

**Q.** What about the GI50 (MALME-3M melanoma) of the same compound?
**A.** 1800 nM

**Q.** What about the TGI (MALME-3M melanoma) of the same compound?
**A.** 3470 nM

**Q.** What about the GI50 (HT29 colon) of the same compound?
**A.** 1500 nM

**Q.** What about the TGI (HT29 colon) of the same compound?
**A.** 3170 nM

**Q.** What about the GI50 (OVCAR-3 ovarian) of the same compound?
**A.** 1760 nM

**Q.** What about the TGI (OVCAR-3 ovarian) of the same compound?
**A.** 3290 nM

**Q.** And the GI50 (SW-620 colon)?
**A.** 1670 nM

**Q.** What about the TGI (SW-620 colon) of the same compound?
**A.** 3220 nM

**Q.** And the GI50 (U251 CNS)?
**A.** 1600 nM

**Q.** And the TGI (U251 CNS)?
**A.** 3370 nM

**Q.** What about the GI50 (EKVX NSCLC) of the same compound?
**A.** 1670 nM

**Q.** And the TGI (EKVX NSCLC)?
**A.** 3150 nM

**Q.** And the GI50 (HS 578T breast)?
**A.** 2130 nM

**Q.** What about the TGI (HS 578T breast) of the same compound?
**A.** 4690 nM

**Q.** And the GI50 (UACC-257 melanoma)?
**A.** 1980 nM

**Q.** What about the TGI (UACC-257 melanoma) of the same compound?
**A.** 4260 nM

**Q.** And the GI50 (NCI-H522 lung)?
**A.** 1680 nM

**Q.** And the TGI (NCI-H522 lung)?
**A.** 3420 nM

**Q.** What about the GI50 (DU-145 prostate) of the same compound?
**A.** 1710 nM

**Q.** And the TGI (DU-145 prostate)?
**A.** 3150 nM

**Q.** And the GI50 (RXF 393 renal)?
**A.** 1660 nM

**Q.** What about the TGI (RXF 393 renal) of the same compound?
**A.** 3240 nM

**Q.** What about the GI50 (SF-268 CNS) of the same compound?
**A.** 1800 nM

**Q.** And the TGI (SF-268 CNS)?
**A.** 3580 nM
